Reference: article PMC7822592, “The half-life of the bone-derived hormone osteocalcin is regulated through O-glycosylation in mice, but not in humans” (eLife, 2020)

Test system: primary osteoblasts
Experiment: Percentage of carboxylated OCN (Gla-OCN) over total OCN by ELISA in osteoblast secretion medium
Assay type: cell-based, mouse
Method: Primary osteoblasts were transfected using jetPRIME Reagent (Polypus transfection). After an overnight incubation, media were changed to secretion media (FBS-free αMEM plus 2 mM L-glutamine, PS). After 24 hr of secretion, media were collected, and cells were lysed in protein lysis buffer (20 mM Tris-HC pH 7.4, 150 mM NaCl, 1 mM EDTA, 1 mM EGTA, 1% Triton, 1 mM PMSF, and 1 × protease inhibitor cocktail) and analyzed by western blotting. In some experiments, osteoblasts were treated with the γ-carboxylation inhibitor warfarin (50 μM; Santa Cruz Biotechnology), the N-acetylgalactosaminyltransferase inhibitor GalNAc-bn (2 mM, Sigma) or the proprotein convertase inhibitor Dec-RVKR-CMK (50 μM, Tocris), combined with 22 μM vitamin K1 (Sigma).

| SMILES | Gla OCN (% of total) (osteoblasts transfected with OCN-V5, inhibitor 2 mM, secretion medium, Figure 2C, replicate 1) | Gla OCN (% of total) (osteoblasts transfected with OCN-V5, inhibitor 2 mM, secretion medium, Figure 2C, replicate 2) | Gla OCN (% of total) (osteoblasts transfected with OCN-V5, inhibitor 50 μM, Figure 2D/2E, replicate 1) | Gla OCN (% of total) (osteoblasts transfected with OCN-V5, inhibitor 50 μM, Figure 2D/2E, replicate 2) | Gla OCN (% of total) (osteoblasts transfected with OCN-V5, inhibitor 50 μM, Figure 2D/2E, replicate 3) | Gla OCN (% of total) (osteoblasts transfected with OCN-V5, inhibitor 50 μM, secretion medium, Figure 2C, replicate 1) | Gla OCN (% of total) (osteoblasts transfected with OCN-V5, inhibitor 50 μM, secretion medium, Figure 2C, replicate 2) | Gla OCN (% of total) (osteoblasts transfected with OCNS8A-V5, inhibitor 50 μM, Figure 2D/2E, replicate 1) | Gla OCN (% of total) (osteoblasts transfected with OCNS8A-V5, inhibitor 50 μM, Figure 2D/2E, replicate 2) | Gla OCN (% of total) (osteoblasts transfected with OCNS8A-V5, inhibitor 50 μM, Figure 2D/2E, replicate 3) |
| --- | --- | --- | --- | --- | --- | --- | --- | --- | --- | --- |
| CC(=O)N[C@H]1[C@@H](OCc2ccccc2)O[C@H](CO)[C@H](O)[C@@H]1O [GalNAc-bn, benzyl-N-acetyl-α-galactosaminide] | 43.4 % of total | 43.4 % of total | – | – | – | – | – | – | – | – |
| CC(=O)CC(c1ccccc1)c1c(O)c2ccccc2oc1=O (stereo not shown) [Warfarin] | – | – | 29.8 % of total | 27.1 % of total | 26.1 % of total | 14.3 % of total | 19.5 % of total | 26.8 % of total | 20.4 % of total | 29.1 % of total |
